In general, IC50 refers to the midpoint of a concentration-inhibition curve.

From patent publication US11319296B2, “DP antagonist” (ONO PHARMACEUTICAL CO., LTD., priority 2018, dated 2022) come the findings set out here.

Data set [1] can be described thus: Measurement of concentration of compound in cerebrospinal fluid (CSF) after oral administration. It is filed as in vivo. As to conditions: rat, 3 mg/kg, male Wistar rats, oral 3 mg/5 mL/kg, five test substances mixed, CSF collected 3 hours after administration. The protocol: Pharmacokinetic Test 1: Measurement of Concentration of Compound of Present Invention in Cerebrospinal Fluid (Hereinbelow, CSF)
Five test substances were mixed, and a test substance solution was prepared so that the dose of each test substance was 3 mg/5 mL/kg. The medium used was 5% DMSO 20% kolliphor HS15/propylene glycol (7:3). The test substance solution was orally administered to male 8- to 10-week-old Wistar rats purchased from Charles River Japan. Three hours after administration, the rats were anesthetized and CSF was collected by cisternal puncture. The same amount of ethanol (wako) as CSF was taken with a syringe used for collection, and the compound adsorbed on the syringe was recovered by washing.
Candesartan (TRC) was used as an internal standard substance, 40 μL of acetonitrile and 160 μL of Candesartan-containing acetonitrile/ethanol (7:3) were added to 10 μL of the obtained CSF sample, and the mixture was stirred. To prepare a calibration curve, 40 μL of the compound solution and 160 μL of Candesartan-containing acetonitrile/ethanol (7:3) were added to 10 μL of plasma, and the mixture was stirred. The entire amount of each solution was transferred to a deproteinization filter plate and suction filtered. The obtained filtrate was appropriately diluted with acetonitrile/water (1:1) and used for measurement. In the measurement, standard samples for calibration curve were prepared in the same matrix and analyzed in the same manner. The measurement was performed under the following conditions.
Liquid Chromatography System: Prominence UFLCXR (Shimadzu Corporation),
Column: Shim-pack XR-ODSII 2.0 mm ID×75 mm (Shimadzu Corporation),
Column temperature: 40° C.,
Mobile phase: A: 0.2% formic acid 5 mmol/L ammonium acetate aqueous solution, B: acetonitrile,
Mass spectrometry system: API4000, API5000 (AB SCIEX)
A regression equation was calculated from the peak area ratio (peak area of the test substance/peak area of the internal standard substance) obtained by measuring the standard samples for calibration curve using analysis software Analyst ver. 1.5.2 (AB SCIEX). The peak area ratio was also obtained for a measurement sample and substituted into the regression equation to calculate a quantitative value. In calculation of mean value and standard deviation, points below the lower limit of quantification were calculated as 0.

The next data set has as its target T1, Human DP receptor (Homo sapiens, UniProt Q13258).
T1 construct: expressed in transfected cells
T1 sequence (Q13258 1-359): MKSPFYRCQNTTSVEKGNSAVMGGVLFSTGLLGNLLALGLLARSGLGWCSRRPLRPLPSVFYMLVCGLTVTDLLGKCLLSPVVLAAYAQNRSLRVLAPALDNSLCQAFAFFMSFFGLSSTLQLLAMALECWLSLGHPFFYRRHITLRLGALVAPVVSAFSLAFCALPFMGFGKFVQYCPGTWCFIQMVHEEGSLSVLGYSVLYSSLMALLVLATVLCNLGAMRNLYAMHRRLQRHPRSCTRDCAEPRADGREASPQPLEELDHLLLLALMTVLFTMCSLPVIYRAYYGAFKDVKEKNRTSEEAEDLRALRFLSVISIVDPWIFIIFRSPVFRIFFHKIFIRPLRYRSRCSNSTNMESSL
Briefly: Measurement of DP receptor antagonistic activity using human DP receptor expressing cells (cAMP-HTRF). It is filed as cell-based. As to conditions: inhibition of cAMP production increased by 10 nmol/L prostaglandin D2. As for the experimental part:
Biological Example 1: Measurement of DP Receptor Antagonistic Activity Using Human DP Receptor Expressing Cells
cAMP-HTRF kit (SCETI MEDICAL LABO K.K., 62AM6PEJ) was used to measure DP receptor antagonistic activity. To a 384 well plate was added 10 μL/well of the compound of the present invention prepared at various concentrations and prostaglandin D2 (final concentration 10 nmol/L). Human DP receptor-expressing cells were suspended in phosphate buffer containing 2 μmoL/L diclofenac and 1 mmol/L IBMX (3-isobutyl-1-methylxantine) and seeded to 5000 cells/10 μL/well. After cell seeding, the cells were incubated at room temperature for 1 hour. Thereafter, anti-cAMP Cryptate conjugate and a cAMP-d2 solution were added according to a method of the measurement kit, and the mixture was incubated at room temperature for 1 hour, then the cAMP concentration in the sample was quantified.
Intensity of DP receptor antagonistic action by the compound of the present invention was represented by IC50 value (concentration of the compound of the present invention required to inhibit 50% of cAMP production in the absence of the compound of the present invention) calculated from an inhibition ratio to the cAMP production increased by 10 nmol/L prostaglandin D2 stimulation.
For orientation: In TR-FRET formats the signal depends on donor and acceptor labels being close together.

The subject of the next data set is normal rat. Nature of the data set: Effect of prolonging normal rat awakening time (electroencephalogram/electromyogram). It is filed as in vivo. The conditions noted are these: rats, single oral dose of 3 mg/kg. As for the experimental part:
Biological Example 2: Effect of Prolonging Normal Rat Awakening Time
Chronic electrodes were placed in the brain and cervical muscles of rats to prepare rats in which electroencephalogram and electromyogram can be measured. After a recovery period of one week or more, the rat and a biological signal amplifier were connected in a shield box that blocked sound and electrical noise. After acclimatization in a measurement cage for 1 hour or more, various doses of the compound of the present invention were orally administered to rats in a single dose, and electroencephalogram and electromyogram were recorded 6 hours after the oral administration. After the measurement was completed, the rats were returned to a breeding cage each time, and a vehicle and each compound were evaluated with a washout period of one week or more.
The recorded electroencephalogram and electromyogram were analyzed using SleepSign Ver. 3 and divided into epochs every 10 seconds, and the stage was determined for any of awakening, non-REM sleep or REM sleep, with reference to characteristics of the electroencephalogram and electromyogram and spectral analysis results of each frequency component of the brain wave. […]

In data set [1], `O=C(O)Cc1ccc(Cl)c(NC(=S)c2ccc(OCCC3CCCCO3)cc2C(F)(F)F)c1` (stereo not drawn) [Example 10-2, [4-Chloro-3-({4-[2-(oxan-2-yl)ethoxy]-2-(trifluoromethyl)benzene-1-carbothioyl}amino)phenyl]acetic Acid] showed a concentration at 3 h of 55 ng/mL.

Consider `Cc1cc(OCCC2CCCCC2)cc(C)c1C(=S)Nc1cc(CC(=O)O)ccc1Cl` [Example 10-1, (4-Chloro-3-{[4-(2-cyclohexylethoxy)-2,6-dimethylbenzene-1-carbothioyl]amino}phenyl)acetic Acid], for which the IC50 on Human DP receptor came out at 1.7 nM. In data set [1], this compound returned a concentration at 3 h of 36 ng/mL.

`O=C(O)Cc1ccc(Cl)c(NC(=S)c2ccc(OCCc3ccccc3)cc2C(F)(F)F)c1` [Example 10-4, (4-Chloro-3-{[4-(2-phenylethoxy)-2-(trifluoromethyl)benzene-1-carbothioyl]amino}phenyl)acetic Acid] gave an IC50 at Human DP receptor of 5.1 nM. This compound also had a concentration at 3 h in data set [1] of 34 ng/mL.

Turning to `Cc1cc(OCCC2CCCCO2)cc(C)c1C(=S)Nc1cc(CC(=O)O)ccc1Cl` (stereo not drawn) [Example 10, [4-Chloro-3-({2,6-dimethyl-4-[2-(oxan-2-yl)ethoxy]benzene-1-carbothioyl}amino)phenyl]acetic Acid], on Human DP receptor, half-maximal inhibition (IC50) was put at 9.6 nM. In data set [1], this compound came in with a concentration at 3 h of 43 ng/mL.

For the compound `O=C(O)Cc1ccc(Cl)c(NC(=O)c2ccc(OCCC3CCCCC3)cc2C(F)(F)F)c1` [Example 2-1, {4-Chloro-3-[4-(2-cyclohexylethoxy)-2-(trifluoromethyl)benzamide]phenyl}acetic Acid], the IC50 against Human DP receptor was 34 nM.

For the compound `Cc1cc(OCCC2CCCCO2)cc(C)c1C(=S)Nc1cc(C(C)C(=O)O)ccc1Cl` (stereo in doubt) [Example 21, 2-(4-Chloro-3-{[(2,6-dimethyl-4-{2-[(2R)-tetrahydro-2H-pyran-2-yl]ethoxy}phenyl)carbothioyl]amino}phenyl)propanoic Acid], half-maximal inhibition against Human DP receptor (IC50) required 7.8 nM. This compound also displayed a concentration at 3 h in data set [1] of 66 ng/mL.

Regarding `Cc1cc(/C=C/CC2CCCCC2)cc(C)c1C(=O)Nc1cc(CC(=O)O)ccc1Cl` [Example 8, (4-Chloro-3-{4-[(1E)-3-cyclohexylprop-1-en-1-yl]-2,6-dimethylbenzamide}phenyl)acetic Acid], the midpoint of inhibition against Human DP receptor, the IC50, lay at 3.7 nM. The compound further gave a concentration at 3 h in data set [1] of 28 ng/mL. In addition, the “awakening time-prolonging effect (difference in total awakening time of 6 hours after administration vs vehicle-administered group)” value in the data set on normal rat amounted to 48 min.

Turning to `Cc1cc(OCCC2CCCCO2)cc(C)c1C(=S)Nc1cc(C(C)(C)C(=O)O)ccc1F` (stereo not drawn) [Example 20, 2-{3-[({2,6-Dimethyl-4-[2-(tetrahydro-2H-pyran-2-yl)ethoxy]phenyl}carbothioyl)amino]-4-fluorophenyl}-2-methylpropanoic Acid], at Human DP receptor, the 50% inhibitory concentration (IC50) is 35 nM. The compound also yielded a concentration at 3 h in data set [1] of 52 ng/mL.

`Cc1cc(C#CCC2CCCCC2)cc(C)c1C(=O)Nc1cc(CC(=O)O)ccc1Cl` [Example 7, {4-Chloro-3-[4-(3-cyclohexylprop-1-yn-1-yl)-2,6-dimethylbenzamide]phenyl}acetic Acid] had an IC50 against Human DP receptor of 16 nM. For the same compound, the concentration at 3 h in data set [1] came to 45 ng/mL.

Regarding `Cc1cc(OC2Cc3ccccc3C2)cc(C)c1C(=O)Nc1cc(CC(=O)O)ccc1F` [Example 5, (3-{4-[(2,3-Dihydro-1H-inden-2-yl)oxy]-2,6-dimethylbenzamide}-4-fluorophenyl)acetic Acid], it took 10 nM to reach half-maximal inhibition against Human DP receptor (IC50).

In turn, `Cc1cc(OCCC2CCCCC2)cc(C)c1C(=O)Nc1cc(CC(=O)O)ccc1Cl` [Example 4-1, {4-Chloro-3-[4-(2-cyclohexylethoxy)-2,6-dimethylbenzamide]phenyl}acetic Acid] displayed an IC50 on Human DP receptor of 11 nM. For the same compound, in data set [1], the concentration at 3 h stood at 29 ng/mL.

Turning to `Cc1cc(OCCC2CCCCO2)cc(C)c1C(=O)Nc1cc(CC(=O)O)ccc1Cl` (stereo not drawn) [Example 4, (4-Chloro-3-{2,6-dimethyl-4-[2-(oxan-2-yl)ethoxy]benzamide}phenyl)acetic Acid], 58 nM corresponded to half-maximal inhibition against Human DP receptor (IC50).

`Cc1cc(OCC[C@H]2CCCCO2)cc(C)c1C(=S)Nc1cc(CC(=O)O)ccc1Cl` [Example 12, {4-Chloro-3-[(2,6-dimethyl-4-{2-[(2R)-oxan-2-yl]ethoxy}benzene-1-carbothioyl]amino}phenyl}acetic Acid]: the IC50 on Human DP receptor is 4.8 nM. Further, the concentration at 3 h in data set [1] was found to be 48 ng/mL. Besides, the “awakening time-prolonging effect (difference in total awakening time of 6 hours after administration vs vehicle-administered group)” value in the data set on normal rat was 60 min.
